Test results published in PubChem BioAssay AID330 (DTP/NCI, 2004).
“And” between values parts separate entries of the source, which are not always exact repeats. Equal entries are not always repeated. Inconclusive results and toxic doses are left out. Square brackets hold non-standard residues; d marks the D form. Peptide text beside a SMILES is read from it. Ac5c = NC1(C(=O)O)CCCC1

System: P388 leukemia ip, CD2F1 mice, survival T/C
Experiment: NCI In Vivo Anticancer Drug Screen. Data for tumor model P388 Leukemia (intraperitoneal) in CD2F1 (CDF1) mice
Conditions: endpoint: median survival time, higher = longer survival
Summary of the method: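 Mice carrying the transplanted tumor received test compound or vehicle. Survival was recorded in each group, and the value is the treated-group measurement divided by that of the vehicle-treated control group.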

[1] = dose: 50.0 mg/kg/injection, schedule: Q01DX005 (ip), vehicle: saline with Tween-80
[2] = dose: 100.0 mg/kg/injection, schedule: Q01DX005 (ip), vehicle: saline with Tween-80
[3] = dose: 200.0 mg/kg/injection, schedule: Q01DX005 (ip), vehicle: saline with Tween-80
[4] = dose: 100.0 mg/kg/injection, schedule: Q01DX009 (ip), vehicle: saline with Tween-80
[5] = dose: 200.0 mg/kg/injection, schedule: Q01DX009 (ip), vehicle: saline with Tween-80
[6] = dose: 60.0 mg/kg/injection, schedule: Q01DX005 (ip), vehicle: saline with Tween-80
[7] = dose: 120.0 mg/kg/injection, schedule: Q01DX005 (ip), vehicle: saline with Tween-80
[8] = dose: 240.0 mg/kg/injection, schedule: Q01DX005 (ip), vehicle: saline with Tween-80

## CC1(C)NN=C(SCc2ccccc2)NC1=O
dose: 100.0 mg/kg/injection, schedule: Q04DX003 (ip), vehicle: Klucel (hydroxypropylcellulose) (HPC)
  T/C: 98 % of control
dose: 200.0 mg/kg/injection, schedule: Q04DX003 (ip), vehicle: Klucel (hydroxypropylcellulose) (HPC)
  T/C: 100 % of control
dose: 400.0 mg/kg/injection, schedule: Q04DX003 (ip), vehicle: Klucel (hydroxypropylcellulose) (HPC)
  T/C: 92 % of control

## CC1(C)CC2C3=CCC4C5(C)CCC(O)C(C)(C)C5CCC4(C)C3(C)CC(O)C2(CO)C(O)C1O (stereo unspecified)
dose: 3.5 mg/kg/injection, schedule: Q01DX005 (ip), vehicle: Klucel (hydroxypropylcellulose) (HPC)
  T/C: 99 % of control
dose: 7.0 mg/kg/injection, schedule: Q01DX005 (ip), vehicle: Klucel (hydroxypropylcellulose) (HPC)
  T/C: 99 % of control
dose: 14.0 mg/kg/injection, schedule: Q01DX005 (ip), vehicle: Klucel (hydroxypropylcellulose) (HPC)
  T/C: 95 % of control
dose: 28.0 mg/kg/injection, schedule: Q01DX005 (ip), vehicle: Klucel (hydroxypropylcellulose) (HPC)
  T/C: 96 % of control

## CCCCCCCCCCCCCCCC[N+]1(CC)CCOCC1
dose: 1.56 mg/kg/injection, schedule: Q01DX009 (ip), vehicle: saline
  T/C: 105 % of control and 100 % of control
dose: 3.12 mg/kg/injection, schedule: Q01DX009 (ip), vehicle: saline
  T/C: 99 % of control
dose: 12.5 mg/kg/injection, schedule: Q01DX009 (ip), vehicle: saline
  T/C: 115 % of control and 105 % of control

## COC1OC(CO)C(O)C(O)C1NC(C)=O (stereo unspecified)
[1]
  T/C: 99 % of control
[2]
  T/C: 100 % of control
[3]
  T/C: 104 % of control

## CC1=CSCC(=O)N1
[4]
  T/C: 104 % of control
[5]
  T/C: 95 % of control

## C=C(c1ccc(OC)cc1)C(CC)c1ccc(OC)cc1 (stereo unspecified)
[6]
  T/C: 101 % of control
[7]
  T/C: 100 % of control

## O=C(O)c1cc(Cc2c[nH]c(=O)[nH]c2=O)ccc1O
dose: 25.0 mg/kg/injection, schedule: Q01DX005 (ip), vehicle: saline with Tween-80
  T/C: 111 % of control
[1]
  T/C: 111 % of control
[2]
  T/C: 101 % of control

## [Se]=P(c1ccccc1)(N1CCCCC1)N1CCCCC1
dose: 12.5 mg/kg/injection, schedule: Q01DX001 (ip), vehicle: Klucel (hydroxypropylcellulose) (HPC)
  T/C: 106 % of control
dose: 25.0 mg/kg/injection, schedule: Q01DX001 (ip), vehicle: Klucel (hydroxypropylcellulose) (HPC)
  T/C: 101 % of control
dose: 50.0 mg/kg/injection, schedule: Q01DX001 (ip), vehicle: Klucel (hydroxypropylcellulose) (HPC)
  T/C: 93 % of control

## CC1(CO)CSC(Nc2ccc(F)cc2)=N1 (stereo unspecified)
dose: 50.0 mg/kg/injection, schedule: Q01DX009 (ip), vehicle: saline with Tween-80
  T/C: 104 % of control
[4]
  T/C: 98 % of control
[5]
  T/C: 104 % of control

## O=C(O)C(Cc1ccsc1)NC(=O)C(F)(F)F (stereo unspecified)
dose: 50.0 mg/kg/injection, schedule: Q01DX009 (ip), vehicle: saline + alcohol
  T/C: 94 % of control
dose: 100.0 mg/kg/injection, schedule: Q01DX009 (ip), vehicle: saline + alcohol
  T/C: 99 % of control
dose: 200.0 mg/kg/injection, schedule: Q01DX009 (ip), vehicle: saline + alcohol
  T/C: 98 % of control

## COc1ccccc1OCC(Cn1c(=O)nc(-c2ccccc2)c2cc(Cl)ccc21)OC(N)=O (stereo unspecified)
[1]
  T/C: 104 % of control
[2]
  T/C: 100 % of control
[3]
  T/C: 95 % of control

## O=C1CC(=O)N2C(=O)CC(=O)N12
[6]
  T/C: 99 % of control
[7]
  T/C: 103 % of control
[8]
  T/C: 97 % of control

## COc1cc2c(c(OC)c1OC)-c1ccc(OC)c(=O)cc1[C@@H](NC(=O)C(F)(F)F)CC2
dose: 0.09 mg/kg/injection, schedule: Q01DX009 (ip), vehicle: Klucel (hydroxypropylcellulose) (HPC)
  T/C: 121 % of control
dose: 0.18 mg/kg/injection, schedule: Q01DX009 (ip), vehicle: Klucel (hydroxypropylcellulose) (HPC)
  T/C: 123 % of control
dose: 6.0 micrograms/kg/injection, schedule: Q01DX009 (ip), vehicle: Klucel (hydroxypropylcellulose) (HPC)
  T/C: 101 % of control
dose: 12.0 micrograms/kg/injection, schedule: Q01DX009 (ip), vehicle: Klucel (hydroxypropylcellulose) (HPC)
  T/C: 111 % of control
dose: 24.0 micrograms/kg/injection, schedule: Q01DX009 (ip), vehicle: Klucel (hydroxypropylcellulose) (HPC)
  T/C: 112 % of control
dose: 24.38 micrograms/kg/injection, schedule: Q01DX009 (ip), vehicle: Klucel (hydroxypropylcellulose) (HPC)
  T/C: 120 % of control
dose: 48.0 micrograms/kg/injection, schedule: Q01DX009 (ip), vehicle: Klucel (hydroxypropylcellulose) (HPC)
  T/C: 121 % of control
dose: 48.75 micrograms/kg/injection, schedule: Q01DX009 (ip), vehicle: Klucel (hydroxypropylcellulose) (HPC)
  T/C: 120 % of control
dose: 97.0 micrograms/kg/injection, schedule: Q01DX009 (ip), vehicle: Klucel (hydroxypropylcellulose) (HPC)
  T/C: 119 % of control
dose: 97.5 micrograms/kg/injection, schedule: Q01DX009 (ip), vehicle: Klucel (hydroxypropylcellulose) (HPC)
  T/C: 118 % of control
dose: 195.0 micrograms/kg/injection, schedule: Q01DX009 (ip), vehicle: Klucel (hydroxypropylcellulose) (HPC)
  T/C: 122 % of control
dose: 390.0 micrograms/kg/injection, schedule: Q01DX009 (ip), vehicle: Klucel (hydroxypropylcellulose) (HPC)
  T/C: 155 % of control

## Nc1ccc(S(=O)(=O)c2cc(O)c3ccccc3c2O)cc1
dose: 50.0 mg/kg/injection, schedule: Q01DX009 (ip), vehicle: Klucel (hydroxypropylcellulose) (HPC)
  T/C: 104 % of control

## NCC(=O)NCC(=O)NC1(C(=O)O)CCCC1 (H-Gly-Gly-[Ac5c]-OH)
dose: 50.0 mg/kg/injection, schedule: Q01DX005 (ip), vehicle: saline
  T/C: 102 % of control and 103 % of control
dose: 100.0 mg/kg/injection, schedule: Q01DX005 (ip), vehicle: saline
  T/C: 110 % of control and 113 % of control
dose: 200.0 mg/kg/injection, schedule: Q01DX005 (ip), vehicle: saline
  T/C: 110 % of control
dose: 400.0 mg/kg/injection, schedule: Q01DX005 (ip), vehicle: saline
  T/C: 116 % of control and 87 % of control

## COC(=N)c1nc2c(N)nc(-c3ccccc3)nc2[nH]c1=O
[4]
  T/C: 98 % of control
[5]
  T/C: 98 % of control
dose: 400.0 mg/kg/injection, schedule: Q01DX009 (ip), vehicle: saline with Tween-80
  T/C: 97 % of control

## Cc1cc(=O)oc2c(-c3ccccc3)nnc(Cl)c12
dose: 60.0 mg/kg/injection, schedule: Q01DX005 (ip), vehicle: Klucel (hydroxypropylcellulose) (HPC)
  T/C: 98 % of control
dose: 120.0 mg/kg/injection, schedule: Q01DX005 (ip), vehicle: Klucel (hydroxypropylcellulose) (HPC)
  T/C: 96 % of control
dose: 240.0 mg/kg/injection, schedule: Q01DX005 (ip), vehicle: Klucel (hydroxypropylcellulose) (HPC)
  T/C: 95 % of control

## COc1cccc2c1C(=O)c1c(O)c3c(c(O)c1C2=O)C[C@@](O)(C(=O)CO)C[C@@H]3OC1CC(NCc2ccccc2)C(O)C(C)O1 (stereo partly specified)
dose: 0.39 mg/kg/injection, schedule: Q01DX009 (ip), vehicle: water
  T/C: 150 % of control
dose: 0.78 mg/kg/injection, schedule: Q01DX009 (ip), vehicle: water
  T/C: 151 % of control
dose: 1.56 mg/kg/injection, schedule: Q01DX009 (ip), vehicle: water
  T/C: 153 % of control and 158 % of control
dose: 3.13 mg/kg/injection, schedule: Q01DX009 (ip), vehicle: water
  T/C: 175 % of control and 194 % of control
dose: 3.89 mg/kg/injection, schedule: Q04DX003 (ip), vehicle: water
  T/C: 163 % of control
dose: 6.25 mg/kg/injection, schedule: Q01DX009 (ip), vehicle: water
  T/C: 107 % of control and 224 % of control
dose: 6.48 mg/kg/injection, schedule: Q04DX003 (ip), vehicle: water
  T/C: 175 % of control
dose: 10.8 mg/kg/injection, schedule: Q04DX003 (ip), vehicle: water
  T/C: 201 % of control
dose: 18.0 mg/kg/injection, schedule: Q04DX003 (ip), vehicle: water
  T/C: 105 % of control
dose: 30.0 mg/kg/injection, schedule: Q04DX003 (ip), vehicle: water
  T/C: 94 % of control

## C=C1CCC2C(OC(=O)C2(O)COC(C)=O)C2C(=C)C(OC(C)=O)CC12 (stereo unspecified)
dose: 9.38 mg/kg/injection, schedule: Q01DX005 (ip), vehicle: Klucel (hydroxypropylcellulose) (HPC)
  T/C: 106 % of control
dose: 18.75 mg/kg/injection, schedule: Q01DX005 (ip), vehicle: Klucel (hydroxypropylcellulose) (HPC)
  T/C: 100 % of control
dose: 37.5 mg/kg/injection, schedule: Q01DX005 (ip), vehicle: Klucel (hydroxypropylcellulose) (HPC)
  T/C: 98 % of control
dose: 75.0 mg/kg/injection, schedule: Q01DX005 (ip), vehicle: Klucel (hydroxypropylcellulose) (HPC)
  T/C: 100 % of control
dose: 150.0 mg/kg/injection, schedule: Q01DX005 (ip), vehicle: Klucel (hydroxypropylcellulose) (HPC)
  T/C: 99 % of control

## CCCCCCCCCCCCCCCc1nc(SCC(=O)OC)n[nH]1
[6]
  T/C: 99 % of control
[7]
  T/C: 99 % of control
[8]
  T/C: 98 % of control
